In patent US20250041282A1, “METHOD FOR TREATING INFLAMMATORY PULMONARY DISEASE” (FU JEN CATHOLIC UNIVERSITY, priority 2021, published 2025):

Tests used:
[1] = test system: C57BL/6 mice with LPS-induced systemic inflammation; assay: Serum cytokines by ELISA in mice with LPS-induced systemic inflammation; assay type: in vivo, mouse; conditions: FJU-C28 5 mg/kg, LPS 7.5 mg/kg; FIG. 12B
Method: RANTES (RayBiotech), IL-1β and IL-6 (eBioscience, San Diego, CA, USA) concentrations in cell culture media and mouse serum were measured using ELISA kits according to the manufacturer's instructions. The plates were measured at […] using an Epoch microplate spectrophotometer (BioTek Instruments, Winooski, VT, USA). The concentrations of RANTES, IL-1β and IL-6 in the samples were determined by standard curves.
Ten-week-old male C57BL/6 mice from BioLasco Taiwan Co., Ltd. (Taipei, Taiwan) were used in the present study. […] The detailed procedure was performed as described in a previous study.^34 The lung function values, including C chord (lung compliance), IC (inspiratory capacity), VC (vital capacity), FEV100 (forced expiratory volume at 100 ms) and FVC (forced vital capacity), were measured using a Buxco Research System. […]
To evaluate the protective effect of FJU-C28 on lung function in mice with systemic inflammation induced by endotoxin, male C57BL/6 mice were administered LPS (7.5 mg/kg) and treated with/without FJU-C28 (5 mg/kg) for 24 hours; subsequently, lung function parameters were measured using a Buxco pulmonary function test system. […] To ascertain the correlation between target cytokines and lung injury, serum cytokines were measured by ELISA.

[2] = test system: C57BL/6 mice with LPS-induced systemic inflammation; assay: Lung function in mice with LPS-induced systemic inflammation (Buxco); assay type: in vivo, mouse; conditions: FJU-C28 5 mg/kg, LPS 7.5 mg/kg, 24 hours
Method: Ten-week-old male C57BL/6 mice from BioLasco Taiwan Co., Ltd. (Taipei, Taiwan) were used in the present study. The mice were maintained under standard laboratory conditions as described in a previous study.^34 All animal procedures were approved by the Institutional Animal Care and Use Committee of Fu Jen Catholic University (IACUC approval number: A10508). We also confirmed that all experiments were performed in compliance with the ARRIVE guidelines. All surgeries were performed under anesthesia, and all efforts were made to minimize the pain and discomfort of the animals. The mice were randomly assigned to three groups: control (n=7), LPS (n=7) and LPS plus C28 (n=8). The mice were injected with/without FJU-C28 (5 mg/kg) dissolved in DMSO/PBS buffer, and after one hour the mice were stimulated with an intraperitoneal injection of LPS (7.5 mg/kg) in PBS buffer. At 24 hours after LPS stimulation, the mice were anesthetized i.p. with a mixture of ketamine (100 mg/kg) (Pfizer, New York, US) and xylazine (10 mg/kg) (Bayer, Leverkusen, Germany), endotracheally intubated with an airway catheter and connected to a forced pulmonary maneuver system (Buxco Research System; Buxco Electronics, Wilmington, NC). The detailed procedure was performed as described in a previous study.^34 The lung function values, including C chord (lung compliance), IC (inspiratory capacity), VC (vital capacity), FEV100 (forced expiratory volume at 100 ms) and FVC (forced vital capacity), were measured using a Buxco Research System. After the lung function assays, the experimental mice were sacrificed, and blood was collected by cardiac puncture. The lung lobes were inflated with 4% buffered paraformaldehyde via a catheter. Slides of lung specimens at a thickness of 5 μm were stained with hematoxylin and eosin for light microscopic analysis.
To evaluate the protective effect of FJU-C28 on lung function in mice with systemic inflammation induced by endotoxin, male C57BL/6 mice were administered LPS (7.5 mg/kg) and treated with/without FJU-C28 (5 mg/kg) for 24 hours; subsequently, lung function parameters were measured using a Buxco pulmonary function test system. […] However, treatment with FJU-C28 restored the LPS-induced decreases in lung function including VC (p<0.05), C chord, FEV100 (p<0.05), and FVC (p<0.05), compared to those of LPS-treated mice (FIG. 11). To confirm the status of LPS-induced lung injury in mice, histological examination of lung specimens was performed by H&E staining. […] To ascertain the correlation between target cytokines and lung injury, serum cytokines were measured by ELISA.

RAW264.7 macrophages [3] = assay: Quantitative real-time PCR of inflammatory mediators and cytokines; assay type: cell-based, mouse; conditions: LPS-induced
Method: RNA was isolated from cells using TRIzol reagent (Invitrogen, Carlsbad, CA, USA) as previously described.^32 The concentration of the isolated RNA was measured using an Epoch microplate spectrophotometer (BioTek, Winooski, VT, USA). One microgram of RNA was reverse-transcribed to cDNA with random primers and an MMLV RT kit (Epicenter Biotechnologies, Madison, WI, USA). The mixture (2 μl) was added to PCR reagents to measure the target mRNA level with specific primers (Table 1). All real-time PCRs were performed in a volume of 20 μl containing 10 μl of Real-time PCR SYBR Green master mix (Toyobo, Osaka, Japan) using a PikoReal 96 Real-Time PCR System (Thermo Fisher Scientific Inc.), according to our previously described method.^33 The expression of β-actin was used as an internal control for RNA quantification.

RAW264.7 macrophages [4] = assay: Morphology of LPS-stimulated macrophages; assay type: cell-based, mouse; conditions: LPS 24 hours; FIG. 1C
Method: To compare the anti-inflammatory effects of the newly synthesized compound FJU-C28 (FIG. 1A) on LPS-activated murine macrophages to those of the parent compound FJU-C4, RAW264.7 macrophages were pretreated with various concentrations of FJU-Cs for 30 min and then stimulated with or without LPS for 24 hours. […] LPS stimulation changed the shape of macrophages, resulting in dendritic-like cells with multiple vacuoles in the cytoplasm, whereas the untreated cells were round and small. […] This effect was consistent with the findings of the cytotoxicity assay. […] In addition, FJU-C28 suppressed the expression of iNOS and COX2 at doses higher than 5 μM (FIG. 1D).

[5] = concentration less than 10 μM, FIG. 2

C=CCC1CC(Sc2ccccc2)=CC(=O)N1C(=O)C=C (stereo not shown) [FJU-C28]
circulating (serum) level of IL-6 [1]: significantly suppressed
circulating (serum) level of RANTES [1]: significantly suppressed
forced expiratory volume at 100 ms (FEV100) ([2]; p<0.05 vs LPS-treated mice): restored
forced vital capacity (FVC) ([2]; p<0.05 vs LPS-treated mice): restored
vital capacity (VC) ([2]; p<0.05 vs LPS-treated mice): restored
lung compliance (C chord) ([2]; vs LPS-treated mice): restored
mRNA level of COX2 (RAW264.7 macrophages [3]; FIG. 2): downregulated in a concentration-dependent manner
mRNA level of iNOS (RAW264.7 macrophages [3]; FIG. 2): downregulated in a concentration-dependent manner
mRNA level of IL-1β (RAW264.7 macrophages [3]; [5]): concentration-dependently decreased
mRNA level of IL-6 (RAW264.7 macrophages [3]; [5]): concentration-dependently decreased
gene expression of IL-6 (RAW264.7 macrophages [3]; dose higher than 5 μM): noticeably inhibited
gene expression of iNOS (RAW264.7 macrophages [3]; dose higher than 5 μM): noticeably inhibited
LPS-induced changes in macrophage morphology (RAW264.7 macrophages [4]): dramatically inhibited these changes in morphology in a concentration-dependent manner
